# Source: BindingDB's records for doi:10.1016/j.ejmech.2008.07.020 (Jadavpur University, 2009)
# Target: Reverse transcriptase/RNaseH (Human immunodeficiency virus 1, UniProt Q72547)
# Assay: Inhibition of HIV1 reverse transcriptase
row,SMILES,IC50 [µM]
1,CCCC1CN(CCC)Cc2cccc3[nH]c(=O)n1c23 (stereo not drawn),182
2,C[C@H]1Cn2c(=O)[nH]c3ccc(N)c(c32)CN1CC1CC1,849
3,CCCCN1Cc2cccc3[nH]c(=O)n(c23)C[C@@H]1C,100
